In patent US20260256873A1, “MODIFIED CAVEOLIN-1 PEPTIDE FORMULATIONS AND METHODS OF MANUFACTURING AND USE THEREOF” (LUNG THERAPEUTICS, INC., priority 2022, published 2026):
Where “and” joins values, the source holds several entries; their conditions need not be identical. Equal values may be shown once. Read-outs that look alike come from different tables or passages of the source. Where a SMILES comes first, the peptide text is derived from it. [ ]: non-standard residue; d: D form.

Assays:
[1] = APi2355 concentrations in various tissues at 42 days post treatment (LC/MS/MS); type: in vivo; settings: male, Sprague Dawley, rat, sc, 2 mg/kg, mean of 6 rats, single SC 2.0 mg/kg in SAIB formulation
Procedure: (§1) The plasma pharmacokinetics of the Cav-1 peptide (APi2355) SAIB formulation prepared according to Example 1 (5.66% w/w APi2355 75.47% w/w SAIB and 18.87% w/w NMP to provide 7% w/w APi2355 to 93% w/w SAIB) were assessed over 42 days after a single-dose subcutaneous administration to male Sprague Dawley rats. The rats (n=6) received one of three batches of the APi2355 SAIB formulations prepared according to Example 1 at a dose of 2.0 mg/kg of APi2355 in 0.033 mL/kg (concentration 60.0 mg/mL). Control group of rats (n=2) received an injection of vehicle formulation containing no APi2355.
(§2) Animals were assigned to groups by a stratified randomization scheme designed to achieve similar group mean body weights. The animals were acclimated to their designated housing for at least 5 days before the day dosing. All formulations were administered in a single dose by dorsal subcutaneous (SC) injection on day 0. Whole blood samples (40-50 μl) were collected from all animals in APi2355 treated group at pre-dose and 1 h, 2 h, 4 h, 8 h, 1 day, 2 days, 4 days, 7 days, 10 days, 14 days, 21 days, 29 days, and 35 days post-treatment. Whole blood samples (40-50 μl, by tail nick) were collected from all animals in control group at pre-dose and at 1 h and 1 day post-treatment. Blood was collected into K2EDTA tubes. Tubes were mixed gently after blood collection, chilled and centrifuged at 3000 rpm and 4° C., within 30 minutes upon collection. The resultant plasma was separated, transferred to uniquely labeled polypropylene tubes and frozen at −20° C. Plasma and tissue samples were analyzed for concentration of APi2355 using a qualified analytical procedure for LC/MS/MS.
(§3) Terminal whole blood samples (maximal volume by cardiac stick) and tissues were collected from all animals on day 42 post-treatment. Tissues included tissues from heart, liver, kidney, lung, and injection site skin patches. Additionally, lungs were processed for bronchial lavage samples. Tissue samples were analyzed for APi2355 by LC/MS/MS.

[2] = Plasma pharmacokinetics of the APi2355 SAIB formulation over 42 days after single-dose subcutaneous administration; type: in vivo, male Sprague Dawley rats; settings: for Tmax: sc
Procedure: as §1
as §2, with “Whole blood samples (40-50 μl) were collected from all animals in APi2355 treated group at pre-dose and 1 h, 2 h, 4 h, 8 h, 1 day, 2 days, 4 days, 7 days, 10 days, 14 days, 21 days, 29 days, and 35 days post-treatment.” left out
as §3

[3] = individual rats, single SC 2.0 mg/kg APi2355 in SAIB formulation, 2 mg/kg
[4] = rat plasma, single SC 2.0 mg/kg in SAIB formulation

level at 1008 h ([1]; bronchoalveolar lavage fluid (BALF), read-out: Concentration in BALF (bronchoalveolar lavage fluid), Mean): 0.99 ng/mL | tissue level at time at 1008 h ([1]; heart, read-out: Concentration in Heart, Mean): 12.1 ng/g | tissue level at time at 1008 h ([1]; injection site skin, injection site skin, read-out: Concentration in Skin, Mean): 4.95 ng/g | tissue level at time at 1008 h ([1]; kidney, read-out: Concentration in Kidney, Mean): 53.2 ng/g | tissue level at time at 1008 h ([1]; liver, read-out: Concentration in Liver, Mean): 1.23 ng/g | tissue level at time at 1008 h ([1]; lung, read-out: Concentration in Lung, Mean): 68 ng/g | AUC0-14, Mean ([2]; dose to day 14, rat plasma, single SC 2.0 mg/kg in SAIB formulation): 126 ng·days/mL | AUC0-22, Mean ([2]; dose to day 22, rat plasma, single SC 2.0 mg/kg in SAIB formulation): 146 ng·days/mL | AUCinf, Mean ([2]; extrapolated to infinity (AUClast + Clast/λz), rat plasma, single SC 2.0 mg/kg in SAIB formulation): 183 ng·days/mL | CL/F ([2]; in vivo, apparent plasma clearance, rat, single SC 2.0 mg/kg in SAIB formulation): 6.94 mL/min/kg | Vd/F ([2]; in vivo, apparent volume of distribution, terminal phase, rat, single SC 2.0 mg/kg in SAIB formulation, read-out: Vz/F, Mean): 133 L/kg | AUC(0-t) ([2]; in vivo, log/linear trapezoidal method, rat plasma, single SC 2.0 mg/kg in SAIB formulation, read-out: AUClast, Mean (converted)): 3940 ng·h/mL | Cmax ([2]; in vivo, rat plasma, single SC 2.0 mg/kg APi2355 in SAIB formulation): 477 ng/mL | half-life ([2]; in vivo, rat plasma, single SC 2.0 mg/kg in SAIB formulation, read-out: Half-life (terminal), Mean (converted)): 9.24 days | MRT last ([2]; in vivo, rat plasma, single SC 2.0 mg/kg in SAIB formulation, read-out: MRTlast, Mean (converted)): 188 h | Clast, Mean ([2]; last measurable concentration, rat plasma, single SC 2.0 mg/kg in SAIB formulation): 0.942 ng/mL | level at 1 h ([2]; male, Sprague Dawley, rat, plasma, mean of 6 rats, single SC 2.0 mg/kg APi2355 in SAIB formulation, read-out: APi2355 plasma concentration 1 hr post-treatment, Mean): 215 ng/mL | level at 2 h ([2]; male, Sprague Dawley, rat, plasma, mean of 6 rats, single SC 2.0 mg/kg APi2355 in SAIB formulation, read-out: APi2355 plasma concentration 2 hr post-treatment, Mean): 398 ng/mL | level at 4 h ([2]; male, Sprague Dawley, rat, plasma, mean of 6 rats, single SC 2.0 mg/kg APi2355 in SAIB formulation, read-out: APi2355 plasma concentration 4 hr post-treatment, Mean): 129 ng/mL | level at 8 h ([2]; male, Sprague Dawley, rat, plasma, mean of 6 rats, single SC 2.0 mg/kg APi2355 in SAIB formulation, read-out: APi2355 plasma concentration 8 hr post-treatment, Mean): 53.5 ng/mL | level at 24 h ([2]; male, Sprague Dawley, rat, plasma, mean of 6 rats, single SC 2.0 mg/kg APi2355 in SAIB formulation, read-out: APi2355 plasma concentration 1 day post-treatment, Mean): 16.7 ng/mL | level at 48 h ([2]; male, Sprague Dawley, rat, plasma, mean of 6 rats, single SC 2.0 mg/kg APi2355 in SAIB formulation, read-out: APi2355 plasma concentration 2 day post-treatment, Mean): 7.09 ng/mL | level at 96 h ([2]; male, Sprague Dawley, rat, plasma, mean of 6 rats, single SC 2.0 mg/kg APi2355 in SAIB formulation, read-out: APi2355 plasma concentration 4 day post-treatment, Mean): 2.46 ng/mL | level at 168 h ([2]; male, Sprague Dawley, rat, plasma, mean of 6 rats, single SC 2.0 mg/kg APi2355 in SAIB formulation, read-out: APi2355 plasma concentration 7 day post-treatment, Mean): 5.36 ng/mL | level at 240 h ([2]; male, Sprague Dawley, rat, plasma, mean of 6 rats, single SC 2.0 mg/kg APi2355 in SAIB formulation, read-out: APi2355 plasma concentration 10 day post-treatment, Mean): 4.01 ng/mL | level at 336 h ([2]; male, Sprague Dawley, rat, plasma, mean of 6 rats, single SC 2.0 mg/kg APi2355 in SAIB formulation, read-out: APi2355 plasma concentration 14 day post-treatment, Mean): 2.73 ng/mL | level at 528 h ([2]; male, Sprague Dawley, rat, plasma, mean of 6 rats, single SC 2.0 mg/kg APi2355 in SAIB formulation, read-out: APi2355 plasma concentration 22 day post-treatment, Mean): 2.61 ng/mL | level at 696 h ([2]; male, Sprague Dawley, rat, plasma, mean of 6 rats, single SC 2.0 mg/kg APi2355 in SAIB formulation, read-out: APi2355 plasma concentration 29 day post-treatment, Mean): 0.62 ng/mL | level at 840 h ([2]; male, Sprague Dawley, rat, plasma, mean of 6 rats, single SC 2.0 mg/kg APi2355 in SAIB formulation, read-out: APi2355 plasma concentration 35 day post-treatment, Mean): 1.29 ng/mL | level at 1008 h ([2]; male, Sprague Dawley, rat, plasma, mean of 6 rats, single SC 2.0 mg/kg APi2355 in SAIB formulation, read-out: APi2355 plasma concentration 42 day post-treatment, Mean): 0.23 ng/mL | APi2355 detectable in the plasma following administration ([2]; number of rats, single SC 2.0 mg/kg in SAIB formulation): 4 out of 6 | % AUC Extrap, Mean [2, 4]: 9.00% | extrapolated AUC of AUCinf [2, 4]: < 20% | fraction of the total exposure of APi2355 occurring in the first 3 weeks after SC administration [2, 4]: Approximately ⅔ | Tmax ([2]; rat, in vivo, 2 mg/kg, rat plasma, single SC 2.0 mg/kg APi2355 in SAIB formulation, read-out: Tmax, Mean (converted)): 1.99 h | Tmax ([2]; rat, in vivo, 2 mg/kg, rat plasma, single SC 2.0 mg/kg APi2355 in SAIB formulation, read-out: Tmax, median (converted)): 1.99 h | Tlast, Mean ([2]; time of last quantifiable concentration, rat plasma, single SC 2.0 mg/kg in SAIB formulation): 39.7 days
SMILES: CC(=O)N[C@H](C)C(=O)N[C@H](C)C(=O)N[C@@H](CCC(=O)O)C(=O)NCC(=O)N[C@@H](CCCCN)C(=O)N[C@@H](C)C(=O)N[C@@H](CO)C(=O)N[C@@H](Cc1ccccc1)C(=O)N[C@H](C(=O)N[C@H](C(=O)N[C@@H](Cc1ccccc1)C(=O)N[C@H](C(=O)N[C@H](C(=O)N[C@H](C(=O)N[C@@H](CCCCN)C(=O)NCC(=O)N[C@@H](CO)C(=O)N[C@H](C)C(=O)N[C@H](C)C(N)=O)[C@@H](C)O)C(C)C)[C@@H](C)O)[C@@H](C)O)[C@@H](C)O [APi2355, Ac-aaEGKASFTTFTVTKGSaa-NH2] (Ac-[dA][dA]EGKASFTTFTVTKGS[dA][dA]-NH2)
APi2355 plasma concentration 1 hr post-treatment [2, 3]: 202.00 ng/mL and 232.90 ng/mL and 109.02 ng/mL and 101.53 ng/mL and 84.70 ng/mL and 557.93 ng/mL | APi2355 plasma concentration 2 hr post-treatment [2, 3]: 884.98 ng/mL and 111.43 ng/mL and 37.62 ng/mL and 317.55 ng/mL and 539.82 ng/mL and 497.89 ng/mL | APi2355 plasma concentration 4 hr post-treatment [2, 3]: 26.95 ng/mL and 102.25 ng/mL and 328.27 ng/mL and 164.91 ng/mL and 97.42 ng/mL and 52.01 ng/mL | APi2355 plasma concentration 8 hr post-treatment [2, 3]: 23.90 ng/mL and 54.20 ng/mL and 80.69 ng/mL and 75.60 ng/mL and 47.06 ng/mL and 39.24 ng/mL | APi2355 plasma concentration 1 day post-treatment [2, 3]: 10.32 ng/mL and 11.86 ng/mL and 20.55 ng/mL and 12.72 ng/mL and 19.85 ng/mL and 25.11 ng/mL | APi2355 plasma concentration 2 day post-treatment [2, 3]: 6.13 ng/mL and 3.87 ng/mL and 2.54 ng/mL and 8.72 ng/mL and 14.40 ng/mL and 6.90 ng/mL | APi2355 plasma concentration 4 day post-treatment [2, 3]: 4.65 ng/mL and 3.40 ng/mL and 1.29 ng/mL and 2.17 ng/mL and 1.84 ng/mL and 1.41 ng/mL | APi2355 plasma concentration 7 day post-treatment [2, 3]: 15.91 ng/mL and 5.07 ng/mL and 2.40 ng/mL and 2.14 ng/mL and 5.18 ng/mL and 1.44 ng/mL | APi2355 plasma concentration 10 day post-treatment [2, 3]: 2.09 ng/mL and 2.04 ng/mL and 10.43 ng/mL and 5.54 ng/mL and 2.38 ng/mL and 1.58 ng/mL | APi2355 plasma concentration 14 day post-treatment [2, 3]: 1.66 ng/mL and 1.24 ng/mL and 7.00 ng/mL and 1.83 ng/mL and 1.64 ng/mL and 3.04 ng/mL | APi2355 plasma concentration 22 day post-treatment [2, 3]: 1.68 ng/mL and 1.87 ng/mL and 2.49 ng/mL and 5.68 ng/mL and 1.98 ng/mL and 1.93 ng/mL | APi2355 plasma concentration 29 day post-treatment [2, 3]: 0.98 ng/mL and 0.50 ng/mL and 0.85 ng/mL and 0.65 ng/mL and 0.58 ng/mL and 0.16 ng/mL | APi2355 plasma concentration 35 day post-treatment [2, 3]: 0.81 ng/mL and 1.13 ng/mL and 0.78 ng/mL and 0.10 ng/mL and 0.72 ng/mL and 4.20 ng/mL | APi2355 plasma concentration 42 day post-treatment [2, 3]: 0.88 ng/mL and 0.29 ng/mL and 0.15 ng/mL and 0.00 ng/mL (2×) and 0.04 ng/mL
